Common to all, as to format: in vivo
One series has as its system Calves (8) and Cows (7). As to the kind of experiment: Awakening from detomidine-induced sedation, calves and cows. The conditions noted are these: detomidine 0.04-0.06 mg/kg i.m., compound (I) i.v. after 30 min, same dose as detomidine. The procedure: (§1) Trials were carried out as follows: • (A) A dose of 0.04-0.06 mg/kg of detomidine was injected i.m. into the test animals. After exactly 30 min. compound (I) was given intravenously. The awakening of the animal or its recovery from the sedation was then observed. Calves (8) and Cows (7) recovered from detomidine-induced sedation in 2 to 5 minutes from the injection of compound (I). Horses (4) awoke in 5 to 10 min. The awakening effect of compound (I) was found stable for both species. […] For the calves and cows, the dose of compound (I) was the same as the dose of detomidine. For the horses, the dose of compound (I) was five times greater than that of detomidine. • (B) A dose of 2 mg/kg of xylazine was injected i.m. into 10 dogs. This injection induced sedation which lasted for 0.5 - 1 hr. During this time the dogs were able to walk only with difficulty.

The next series has as its system Horses (4). As to the kind of experiment: Awakening from detomidine-induced sedation, horses. As to conditions: detomidine 0.04-0.06 mg/kg i.m., compound (I) i.v. after 30 min, dose five times greater than that of detomidine. On the procedure: as §1
The subject of a further series is dogs. As to the kind of experiment: Awakening from xylazine-induced sedation in dogs. The conditions noted are these: compound (I) 0.1 - 0.3 mg/kg i.v. 20 min. after 2 mg/kg of xylazine. The procedure: In other experiments compound (I) was given at a dose of 0.1 - 0.3 mg/kg i.v. 20 min. after the injection of 2 mg/kg of xylazine. The awakening of the dogs and their recovery from the sedation was observed. The dogs recovered from the xylazine-induced sedation in 2 - 3 minutes after the administration of compound (I).

The subject of series [1] is rats. Nature of the series: Inhibition of the sedative effect of 4-(2,6-dimethylbenzyl)imidazole in rats (spontaneous locomotor activity, activity meter). The conditions noted are these: compound (I) 1-3 mg/kg i.v. or i.p., 15 minutes after 4-(2,6-dimethylbenzyl)imidazole. The procedure: (§2) (C) The following tests concerning the sedative effect of 4-(2,6-dimethylbenzyl)imidazole and the inhibition of this effect with compound (I) were carried out in rats.
In other tests, compound (I) was given i.v. or i.p. to rats at a dose of 1-3 mg/kg, 15 minutes after the administration of 4-(2,6-dimethylbenzyl)imidazole. The recovery of the animals from the sedation was observed by measuring their spontaneous locomotor activity with an activity meter.

In series [2] the test system is rats. Nature of the series: Sedative effect (loss of the righting reflex) in rats. The conditions noted are these: 10 rats; dose of 0.5 mg/kg. On the procedure: as §2
A dose of 0.5 mg/kg of 4-(2,6-dimethylbenzyl) imidazole was injected into 10 rats. This dose induced loss of the righting reflex for 1 h.

The subject of the next series is horses and cattle. As to the kind of experiment: Sedative and analgesic effect of detomidine in horses and cattle. As to conditions: i.m. or i.v. An excerpt:
This invention relates to the preparation of 2-[2-(1,4-benzodioxanyl)]-2-imidazoline, and to its use. Detomidine, which has the formula [drawing 1] is a known compound with sedative and analgesic effect in animals. The potency and the duration of the effect can be regulated by the dosage. The compound is very potent; dosages as small as […] given by injection provide a clinical response. Detomidine is used in veterinary medicine especially in the handling of horses and cattle (pharmacological restraint). The animal is sedated before investigation, treatment and difficult medical operations. Even small surgical operations cannot be carried out without the use of a sedative agent.
The analgesic effect is dose dependent. […] Table 1: The effect of detomidine in horses and cattle. Dosage i.m. or i.v.

For `c1ccc2c(c1)OCC(C1=NCCN1)O2` (stereo not drawn) [compound (I), 2-[2-(1,4-benzodioxanyl)]-imidazoline], the awakening effect result in the series with Calves (8) and Cows (7) was “stable”; with Horses (4), “stable”; with dogs it was “stable”. The side-effects entry is “No side-effects were observed” in the series on Calves (8) and Cows (7); “No side-effects were observed” with Horses (4); “No side-effects were observed” in the series with dogs. The “counteraction of the sedative effect of 4-(2,6-dimethylbenzyl)imidazole” value in the series on rats [1] is recorded as “fully counteract”. Also, the “time to counteract the sedative effect of 4-(2,6-dimethylbenzyl)imidazole after the administration of compound (I)” value in the series on rats [1] was in the range of 1 to 5 min.

Turning to `Cc1cccc(C)c1Cc1c[nH]cn1` [4-(2,6-dimethylbenzyl) imidazole, 4-(2,6-dimethylbenzyl)imidazole], the “duration of loss of the righting reflex” value in the series on rats [2] is 1 h.

With `Cc1cccc(Cc2c[nH]cn2)c1C` [detomidine, Detomidine], in the series on horses and cattle (dose 20-40 µg/kg), the “Delay before the effect begins” value fell in the range of 3 to 5 min, the Effect result is given as “easy to handle; short effect” and the Other effects result is listed as “slight stagger-ing”. In the series on horses and cattle (dose 40-80 µg/kg), the “Delay before the effect begins” value fell in the range of 2 to 5 min; the Effect result was “strong effect”; the Other effects result is on record as “stagger-ing, sweating pilo-erection, muscular tremor”. In addition, in the series on horses and cattle (dose 80-150 µg/kg), the “Delay before the effect begins” value was 1 to 5 min; the “Duration of the effect” value lay within 2 to 6 h; the Other effects entry is listed as “Strong stagger-ing, pilo-erection, sweating, diuresis”.

Values taken from patent publication EP0138358A1, “The preparation and use of 2-[2-(1,4-benzodioxanyl)]-2-imidazoline in therapy” (Farmos-Yhtyma Oy, priority 1983, dated 1985).
